Experiment [1] concerns the target S. agalactiae (SaGUS) β-Glucuronidase (Streptococcus agalactiae serotype V, UniProt Q8E0N2). The experiment is described as follows: biochemical.
For experiment [2], the target named is C. perfringens (CpGUS) β-Glucuronidase (Clostridium perfringens, UniProt Q8XP19). Description: biochemical.
Experiment [3] addresses E. coli (EcGUS) β-Glucuronidase (Escherichia coli, UniProt P05804). The experiment is described as follows: In vitro GUS inhibition, PNPG cleavage by purified E. coli GUS. Conditions: PNPG substrate, 37° C., 2 hours; NI = no inhibition. Format: biochemical. As to the method:
To assess GUS inhibition, cleavage of p-nitrophenyl-β-D-glucuronide (PNPG) by purified E. coli GUS in the presence of inhibitor was measured. The reaction was performed in 96-well clear-bottom plates at a volume of 50 μL. Each reaction contained 5 μL of 100 nM E. coli GUS, 5 μL of inhibitor at various concentrations, 10 μL of 250 mM HEPES and 250 mM NaCl assay buffer, and 30 μL of 1.5 mM PNPG. The reaction was initiated by addition of PNPG and incubated at 37° C. for 2 hours. End point absorbance values at 410 nm were measured using a PHERAstar Plus microplate reader. The resulting data were fit with a four-parameter logistic log function in SigmaPlot 13.0 to determine IC50 values. IC50 was defined as the concentration of inhibitor that yields a 50% reduction in product formation at equilibrium.

In general, IC50 refers to the concentration needed to halve the response being measured. A lower IC50 goes with inhibition by little substance.

Chain of E. coli (EcGUS) β-Glucuronidase (P05804 whole entry): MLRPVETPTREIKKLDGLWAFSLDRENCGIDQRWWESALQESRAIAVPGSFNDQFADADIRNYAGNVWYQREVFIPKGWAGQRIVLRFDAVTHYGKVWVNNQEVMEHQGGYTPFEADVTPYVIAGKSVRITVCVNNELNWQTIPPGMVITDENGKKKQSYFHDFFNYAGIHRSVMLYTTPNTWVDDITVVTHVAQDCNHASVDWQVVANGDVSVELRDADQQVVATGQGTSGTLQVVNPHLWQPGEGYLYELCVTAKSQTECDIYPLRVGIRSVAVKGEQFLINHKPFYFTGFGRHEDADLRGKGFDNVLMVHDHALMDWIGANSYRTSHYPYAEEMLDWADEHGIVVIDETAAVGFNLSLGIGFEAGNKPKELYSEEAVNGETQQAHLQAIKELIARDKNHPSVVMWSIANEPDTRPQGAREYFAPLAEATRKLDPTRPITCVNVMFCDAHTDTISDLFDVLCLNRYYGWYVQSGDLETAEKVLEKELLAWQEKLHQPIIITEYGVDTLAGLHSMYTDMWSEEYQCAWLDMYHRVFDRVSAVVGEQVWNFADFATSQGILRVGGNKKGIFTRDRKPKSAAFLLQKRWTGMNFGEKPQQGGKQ
Chain of C. perfringens (CpGUS) β-Glucuronidase (Q8XP19 whole entry, looked up): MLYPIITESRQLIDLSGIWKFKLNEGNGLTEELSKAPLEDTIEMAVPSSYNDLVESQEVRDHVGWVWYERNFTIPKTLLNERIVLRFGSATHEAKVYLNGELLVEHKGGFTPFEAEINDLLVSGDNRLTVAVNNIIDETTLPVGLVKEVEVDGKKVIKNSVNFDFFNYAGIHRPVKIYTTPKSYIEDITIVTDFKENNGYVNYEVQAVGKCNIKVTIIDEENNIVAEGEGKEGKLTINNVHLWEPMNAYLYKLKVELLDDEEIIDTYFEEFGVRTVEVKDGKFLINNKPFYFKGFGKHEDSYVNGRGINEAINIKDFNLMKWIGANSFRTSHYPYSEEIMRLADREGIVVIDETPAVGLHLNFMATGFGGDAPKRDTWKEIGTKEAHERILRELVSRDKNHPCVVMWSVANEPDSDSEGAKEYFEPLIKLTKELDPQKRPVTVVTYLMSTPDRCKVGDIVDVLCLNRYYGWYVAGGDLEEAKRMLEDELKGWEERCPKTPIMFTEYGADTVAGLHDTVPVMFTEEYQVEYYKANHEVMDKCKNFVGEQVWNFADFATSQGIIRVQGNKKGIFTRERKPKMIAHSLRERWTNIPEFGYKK
Chain of S. agalactiae (SaGUS) β-Glucuronidase (Q8E0N2 whole entry): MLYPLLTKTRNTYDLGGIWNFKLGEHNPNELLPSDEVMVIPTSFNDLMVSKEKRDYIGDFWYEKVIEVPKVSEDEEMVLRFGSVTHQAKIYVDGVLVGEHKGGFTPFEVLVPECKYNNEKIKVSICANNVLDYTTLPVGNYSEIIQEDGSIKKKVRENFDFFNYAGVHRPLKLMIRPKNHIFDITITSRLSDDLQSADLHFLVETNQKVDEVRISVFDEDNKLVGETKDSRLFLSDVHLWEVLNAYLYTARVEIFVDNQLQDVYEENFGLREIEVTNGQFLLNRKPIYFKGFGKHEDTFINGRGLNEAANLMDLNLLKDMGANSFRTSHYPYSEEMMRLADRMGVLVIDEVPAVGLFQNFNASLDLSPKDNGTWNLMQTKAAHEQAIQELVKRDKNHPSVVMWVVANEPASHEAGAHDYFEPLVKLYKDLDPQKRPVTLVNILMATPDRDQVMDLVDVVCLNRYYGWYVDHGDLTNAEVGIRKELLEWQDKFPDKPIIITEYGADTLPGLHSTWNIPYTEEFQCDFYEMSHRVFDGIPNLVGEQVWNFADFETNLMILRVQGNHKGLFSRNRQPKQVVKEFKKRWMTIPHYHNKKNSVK

On to `CNc1nc(N2CCNCC2)c2sc3nc(N4CCOCC4)ccc3c2n1` [Compound 21], for which the figures for the IC50 in experiment [1] and in experiment [2] were 340 ± 50 nM and 100 ± 10 nM, respectively.
Turning to `C[C@@H]1CN(c2nnnc3c2sc2nc(N4CCOCC4)c4c(c23)CCCC4)CCN1` [Compound 6], the figures for the IC50 in experiment [1] and in experiment [2] were 550 ± 70 nM and 3900 ± 100 nM, respectively.
As to `CN(C)c1nc2sc3c(N4CCNCC4)nnnc3c2c2c1CCCC2` [Compound 15], the results for the IC50 in experiment [1] and in experiment [2] were 62 ± 5 nM and 180 ± 6 nM, respectively.
As for `Clc1nc(N2CCNCC2)c2sc3nc(N4CCOCC4)c4c(c3c2n1)CCCC4` [Compound 51], half-maximal inhibition in experiment [3] (IC50) was put at 900 ± 60 nM.
In experiment [3], `Clc1nc(N2CCNCC2)c2sc3nc(N4CCOCC4)ccc3c2n1` [Compound 47] had an IC50 of 30 ± 3 nM.
Consider `CC1(C)CCc2c(N3CCOCC3)nc3sc4c(N5CCNCC5)nnnc4c3c2C1` [Compound 49], for which, in experiment [3], half-maximal inhibition (IC50) required 620 ± 50 nM.
For `C1CCc2c(c(N3CCOCC3)nc3sc4c(N5CCNCC5)nnnc4c23)C1` [Inh9, reference compound], the IC50 is 117 nM in experiment [1] and 154 nM in experiment [2].
For `C1CCc2c(c(N3CCOCC3)nc3sc4c(NC5CCNCC5)nnnc4c23)C1` [Compound 4] the same measures were 70000 ± 20000 nM and 5700 ± 600 nM.
Consider `C[N+]1(C)CCN(c2nnnc3c2sc2nc(N4CCOCC4)c4c(c23)CCCC4)CC1` [Compound 52], for which the IC50 in experiment [3] is 6000 ± 100 nM.
Turning to `C1CCc2c(c(N3CCOCC3)nc3sc4c(N5CCCNCC5)nnnc4c23)C1` [Compound 8], the half-maximal inhibitory concentration (IC50) in experiment [1] amounted to 5000 ± 1000 nM; in experiment [2] it was 13700 ± 600 nM.
As to `CNc1ccc2c(n1)sc1c(N3CCNCC3)nc(NC)nc12` [Compound 29], the results for the IC50 in experiment [1] and in experiment [2] were 550 ± 70 nM and 660 ± 90 nM, respectively.
`CNc1nc2sc3c(N4CCNCC4)nnnc3c2c2c1CCCC2` [Compound 16]: the IC50 in experiment [3] came to 70 ± 10 nM; in experiment [1], 39 ± 8 nM; in experiment [2] it was 180 ± 10 nM.
For `c1cc2c(nc1N1CCOCC1)sc1c(N3CCNCC3)nnnc12` [Compound 19], the 50% inhibitory concentration (IC50) in experiment [1] amounted to 640 ± 60 nM; in experiment [2], 220 ± 20 nM.
The corresponding values for `c1ccc(-c2ccc3c(n2)sc2c(N4CCNCC4)nnnc23)cc1` [Compound 22] are 700 ± 100 nM and 230 ± 30 nM.
For `C1CCc2c(c(N3CCNCC3)nc3sc4c(N5CCNCC5)nnnc4c23)C1` [Compound 12], the 50% inhibitory concentration (IC50) was 63 ± 6 nM in experiment [1] and 120 ± 20 nM in experiment [2].
The compound `COc1nc(N2CCNCC2)c2sc3nc(-c4ccccc4)ccc3c2n1` [Compound 45] showed a 50% inhibitory concentration (IC50) in experiment [3] of 140 ± 8 nM.
The same measure, in the same setting: the value for `Fc1ccc(CNc2nc3sc4c(N5CCNCC5)nnnc4c3c3c2CCCC3)cc1` [Compound 48] was 208 ± 3 nM.
On to `CNc1nc(N2CCNCC2)c2sc3ncccc3c2n1` [Compound 31], for which the 50% inhibitory concentration (IC50) in experiment [1] was 2000 ± 1500 nM; in experiment [2], 900 ± 300 nM.
In the case of `CN1CCN(c2nnnc3c2sc2nc(N4CCOCC4)c4c(c23)CCCC4)CC1` [Compound 2], the figures for the IC50 in experiment [1] and in experiment [2] were 22000 ± 7000 nM and 14300 ± 300 nM, respectively.
Consider `c1ccc(CNc2nc3sc4c(N5CCNCC5)nnnc4c3c3c2CCCC3)cc1` [Compound 17], for which the IC50 in experiment [1] is 90 ± 20 nM; in experiment [2], 290 ± 10 nM.
`C1CCc2c(c(N3CCOCC3)nc3sc4c(N5CC6CC5CN6)nnnc4c23)C1` (stereo not drawn) [Compound 5]: the IC50 is 2700 ± 500 nM in experiment [1] and 4500 ± 300 nM in experiment [2].
The compound `CC1CN(c2nnnc3c2sc2nc(N4CCOCC4)c4c(c23)CCCC4)CCN1` (stereo not drawn) [Compound 44] yielded an IC50 in experiment [3] of 5400 ± 600 nM.
Regarding `OCCNc1nc(N2CCNCC2)c2sc3nc(-c4ccccc4)ccc3c2n1` [Compound 26], the 50% inhibitory concentration (IC50) was 490 ± 60 nM in experiment [1] and 410 ± 40 nM in experiment [2].
For `CNc1nc(N2CCNCC2)c2sc3nc(-c4ccccc4)ccc3c2n1` [Compound 24], the values for the IC50 in experiment [1] and in experiment [2] were 480 ± 30 nM and 450 ± 10 nM, respectively.
Turning to `c1cnc2sc3c(N4CCNCC4)nnnc3c2c1` [Compound 46], the IC50 in experiment [3] came out at 1400 ± 40 nM.
As for `CNc1nc(N2CCNCC2)c2sc3nc(N(C)C)ccc3c2n1` [Compound 28], the half-maximal inhibitory concentration (IC50) in experiment [1] was found to be 500 ± 200 nM; in experiment [2], 280 ± 50 nM.
Regarding `C[C@H]1CN(c2nnnc3c2sc2nc(N4CCOCC4)c4c(c23)CCCC4)CCN1` [Compound 7], the values for the 50% inhibitory concentration (IC50) in experiment [1] and in experiment [2] were 550 ± 60 nM and 4200 ± 300 nM, respectively.
For `NN1CCN(c2nnnc3c2sc2nc(N4CCOCC4)c4c(c23)CCCC4)CC1` [Compound 3], the IC50 in experiment [3] amounted to 5000 ± 500 nM; in experiment [1], 6700 ± 400 nM; in experiment [2] it was 4500 ± 200 nM.
Regarding `C1CCN(c2nc3sc4c(N5CCNCC5)nnnc4c3c3c2CCCC3)CC1` [Compound 13], the IC50 in experiment [1] is 180 ± 20 nM; in experiment [2] it was 350 ± 20 nM.
Take `c1nc(N2CCNCC2)c2sc3nc(N4CCOCC4)ccc3c2n1` [Compound 20]: the IC50 in experiment [3] turned out to be 130 ± 10 nM; in experiment [1] it was 690 ± 30 nM; in experiment [2], 53 ± 4 nM.
For `c1cnc2sc3c(N4CCNCC4)ncnc3c2c1` [Compound 30], the IC50 in experiment [1] came out at 3000 ± 2000 nM; in experiment [2], 577 ± 9 nM.
The corresponding values for `CN(C)c1ccc2c(n1)sc1c(N3CCNCC3)nnnc12` [Compound 27] are 1000 ± 200 nM and 220 ± 20 nM.
`CN(C)c1nc2sc3c(NCCN)nnnc3c2c2c1CCCC2` [Compound 50] had an IC50 in experiment [3] of 12000 ± 2000 nM.
Turning to `c1ccc(-c2ccc3c(n2)sc2c(N4CCNCC4)ncnc23)cc1` [Compound 23], the IC50 was 550 ± 70 nM in experiment [1] and 440 ± 40 nM in experiment [2].
For the compound `C1CCC(Nc2nc3sc4c(N5CCNCC5)nnnc4c3c3c2CCCC3)CC1` [Compound 14], the IC50 in experiment [1] was determined as 320 ± 50 nM; in experiment [2] it was 480 ± 10 nM.
Regarding `CN(C)c1nc(N2CCNCC2)c2sc3nc(-c4ccccc4)ccc3c2n1` [Compound 25], the IC50 in experiment [1] was found to be 270 ± 30 nM; in experiment [2] it was 160 ± 20 nM.

Values taken from patent US11339178B2, “Inhibitors of microbial beta-glucuronidase enzymes and uses thereof” (The University of North Carolina at Chapel Hill, priority 2016, dated 2022).
